ChEMBL document CHEMBL5537110, “SIRT1-dependent mitochondrial biogenesis supports therapeutic effects of 4-butyl-polyhydroxybenzophenone compounds against NAFLD” (Eur J Med Chem, 2023)
The source made the active and inactive calls. The calls are words filed in the database; no cut-off is given here.

Columns and labels:
[1] = target: T1, Peroxisome proliferator-activated receptor gamma coactivator 1-alpha (Homo sapiens) (UniProt Q9UBK2); experiment: Binding affinity to PGC1alpha in human HepG2 cells assessed as increase in thermal stability of protein pretreated with compound for 30 mins followed by incubation at 50 degC for 3 mins by CETSA-WB analysis; type: cell-based; settings: filed as activator, dose 80-320 µM, time 33.0 min
T1 sequence (whole entry): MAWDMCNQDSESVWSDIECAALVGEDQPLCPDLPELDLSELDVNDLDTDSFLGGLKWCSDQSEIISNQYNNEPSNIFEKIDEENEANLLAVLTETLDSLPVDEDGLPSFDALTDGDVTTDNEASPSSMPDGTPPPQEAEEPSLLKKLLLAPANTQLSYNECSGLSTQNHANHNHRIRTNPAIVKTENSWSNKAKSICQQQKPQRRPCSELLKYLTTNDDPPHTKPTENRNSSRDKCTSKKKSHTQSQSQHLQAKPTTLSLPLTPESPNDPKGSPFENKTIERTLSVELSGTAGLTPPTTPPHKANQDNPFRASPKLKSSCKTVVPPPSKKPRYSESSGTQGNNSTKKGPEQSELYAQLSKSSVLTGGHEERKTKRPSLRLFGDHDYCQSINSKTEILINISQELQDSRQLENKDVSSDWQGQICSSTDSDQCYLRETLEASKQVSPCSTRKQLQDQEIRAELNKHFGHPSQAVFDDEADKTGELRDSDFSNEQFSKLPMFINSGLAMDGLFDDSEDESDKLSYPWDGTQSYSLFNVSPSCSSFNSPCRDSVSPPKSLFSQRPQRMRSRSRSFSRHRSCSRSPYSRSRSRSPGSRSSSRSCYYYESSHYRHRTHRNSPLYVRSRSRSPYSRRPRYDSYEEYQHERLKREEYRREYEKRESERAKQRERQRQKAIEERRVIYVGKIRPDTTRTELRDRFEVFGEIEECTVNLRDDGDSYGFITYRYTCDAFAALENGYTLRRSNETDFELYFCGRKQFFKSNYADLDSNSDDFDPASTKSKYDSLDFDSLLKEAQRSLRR

Mitochondria [2] = experiment: Inhibition of mitochondrial dysfunction in 40% FBS-induced steatosis human HepG2 cells model assessed as mitochondria with less swelling and organized mitochondrial cristae at 5 uM incubated for 24 hrs by transmission electron microscopy; type: functional
Mitochondria [3] = experiment: Inhibition of mitochondrial dysfunction in 40% FBS-induced steatosis human HepG2 cells model assessed as decrease in lipid vesicle droplets at 5 uM incubated for 24 hrs by transmission electron microscopy; type: functional
HepG2 [4] = experiment: Recovery of mitochondrial biogenesis in 40% FBS-induced steatosis human HepG2 cells model assessed as increase in TFAM protein expression incubated for 24 hrs by western blot analysis; type: functional, cell-based; settings: dose 0.2-5 µM
HepG2 [5] = experiment: Recovery of mitochondrial biogenesis in 40% FBS-induced steatosis human HepG2 cells model assessed as increase in SIRT1 mRNA expression incubated for 24 hrs by qRT-PCR analysis; type: functional, cell-based; settings: dose 0.2-5 µM
HepG2 [6] = experiment: Recovery of mitochondrial biogenesis in 40% FBS-induced steatosis human HepG2 cells model assessed as increase in PGC1alpha mRNA expression incubated for 24 hrs by qRT-PCR analysis; type: functional, cell-based; settings: dose 0.2-5 µM
HepG2 [7] = experiment: Recovery of energy production in 40% FBS-induced steatosis human HepG2 cells model assessed as upregulation of mitochondrial ATP production incubated with compound for 24 hrs followed by replacement with steatosis inducing DMEM with 40% FBS medium by luciferase based assay; type: functional, cell-based; settings: Mitochondria, dose 0.2-5 µM
HepG2 [8] = experiment: Inhibition of lipid toxicity in 40% FBS-induced steatosis human HepG2 cells model assessed as decrease in triglyceride content at 0.2 to 5 uM incubated with compound for 24 hrs followed by replacement with steatosis inducing DMEM with 40% FBS medium; type: functional, cell-based; settings: dose 0.2-5 µM
HepG2 [9] = experiment: Inhibition of liver injury in 40% FBS-induced steatosis human HepG2 cells model assessed as decrease in ALT level at 0.2 to 5 uM incubated in steatosis inducing DMEM with 40% FBS medium for 24 hrs followed by compound treatment; type: functional, cell-based; settings: dose 0.2-5 µM
HepG2 [10] = experiment: Inhibition of liver injury in 40% FBS-induced steatosis human HepG2 cells model assessed as increase in liver protection index by measuring increase in ratio of GSH to GSSG at 0.2 to 5 uM incubated in steatosis inducing DMEM with 40% FBS medium for 24 hrs followed by compound treatment; type: functional, cell-based; settings: dose 0.2-5 µM
Rattus norvegicus [11] = experiment: Hepatoprotective activity against high fat diet-fed NAFLD Sprague-Dawley rat model assessed as decrease in serum triglyceride content administered intragastrically via gavage for 4 weeks; type: functional, organism-based; settings: dose 12.3-61.4 mg/kg, route ig
Rattus norvegicus [12] = experiment: Hepatoprotective activity against high fat diet-fed NAFLD Sprague-Dawley rat model assessed as decrease in serum total cholesterol content administered intragastrically via gavage for 4 weeks; type: functional, organism-based; settings: dose 12.3-61.4 mg/kg, route ig
Rattus norvegicus [13] = experiment: Hepatoprotective activity against high fat diet-fed NAFLD Sprague-Dawley rat model assessed as less ballooning degeneration and smaller fatty droplets in hepatocytes at 12.3 to 61.4 mg/kg, IG administered via gavage for 4 weeks by Hematoxylin-Eosin staining based analysis; type: functional, organism-based; settings: dose 12.3-61.4 mg/kg
Rattus norvegicus [14] = experiment: Hepatoprotective activity against high fat diet-fed NAFLD Sprague-Dawley rat model assessed as decrease in serum LDH level administered intragastrically via gavage for 4 weeks; type: functional, organism-based; settings: dose 12.3-61.4 mg/kg, route ig
HepG2 [15] = experiment: Induction of SIRT1/PGC1alpha interaction in human HepG2 cells at 5 umol/L by co-immunoprecipitataion analysis; type: cell-based; settings: filed as activator, dose 5.0 µmol/L
HepG2 [16] = experiment: Induction of mitochondrial biogenesis in human HepG2 cells assessed as NRF1 protein expression incubated for 24 hrs in presence of SIRT1 inhibitor, EX527 by western blot analysis; type: functional, cell-based
HepG2 [17] = experiment: Induction of mitochondrial biogenesis in human HepG2 cells assessed as PGC1alpha mRNA expression incubated for 24 hrs in presence of SIRT1 inhibitor, EX527 by qRT-PCR analysis; type: functional, cell-based
HepG2 [18] = experiment: Induction of mitochondrial biogenesis in human HepG2 cells assessed as TFAM mRNA expression incubated for 24 hrs in presence of SIRT1 inhibitor, EX527 by qRT-PCR analysis; type: functional, cell-based
HepG2 [19] = experiment: Induction of mitochondrial biogenesis in human HepG2 cells assessed as mitochondrial COX1 mRNA expression incubated for 24 hrs in presence of SIRT1 inhibitor, EX527 by qRT-PCR analysis; type: functional, cell-based

Activity [1]: Dose-Dependent Effect
SMILES: CC(C)(C)c1ccc(C(=O)c2ccc(O)c(O)c2)cc1
inhibition (Mitochondria [2]): Active | inhibition (Mitochondria [3]): Active | Activity (HepG2 [4]): Dose-Dependent Effect | Activity (HepG2 [5]): Dose-Dependent Effect | Activity (HepG2 [6]): Dose-Dependent Effect | Activity (HepG2 [7]): Dose-Dependent Effect | inhibition (HepG2 [8]): Active | inhibition (HepG2 [9]): Active | inhibition (HepG2 [10]): Active | Activity (Rattus norvegicus [11]): Dose-Dependent Effect | Activity (Rattus norvegicus [12]): Dose-Dependent Effect | Activity (Rattus norvegicus [13]): Active | Activity (Rattus norvegicus [14]): Active | Activity (HepG2 [15]): Active | Activity (HepG2 [16]): inactive | Activity (HepG2 [17]): inactive | Activity (HepG2 [18]): inactive | Activity (HepG2 [19]): inactive
